Patent US12390437B2, “Itaconic acid derivatives and uses thereof intreating an inflammatory disease or a disease associated with an undesirable immune response” (Sitryx Therapeutics Limited, priority 2019, dated 2025)

Assays:
[1] = test system: IL-1β cytokine output from isolated primary human monocytes; assay: Primary human monocyte AlphaLISA IL-1β cytokine assay; assay type: cell-based; conditions: CD14+ primary human monocytes, LPS 24 hr then Nigericin 1 hour
Method: Measuring Inhibitory Effects on IL-1β and IL-6 Cytokine Output from Isolated Primary Human Monocytes
The cytokine inhibition profiles of compounds of formula (IW-1) were determined in a CD14^+ isolated primary human monocyte cell assay. All assays were performed in RPMI-1640 growth medium (Gibco), supplemented with heat-inactivated fetal bovine serum (FBS) and 1% penicillin-streptomycin unless specified otherwise. The IL-1β and IL-6 cytokine inhibition assays were each run in a background of isolated primary human monocyte cells as described below. All reagents described were from Sigma-Aldrich unless specified otherwise. Compounds were prepared as 100 mM DMSO stocks.
Primary peripheral blood mononuclear cells (PBMCs) were isolated from human whole blood. Following PBMC isolation, a CD14^+ monocyte isolation step was conducted whereby CD14^+ magnetic beads (Miltenyi Biotec) were incubated for 15 minutes with the PBMC suspension that was previously treated with ice cold T-cell isolation buffer (PBS, 0.5% BSA, 2 mM EDTA). Following bead incubation, the treated cell suspension was passed through a magnetic separation column designed to positively select for magnetically labelled cells. The isolated CD14^+ monocytes were subsequently plated at the appropriate cell density for the assay, prior to compound treatment on the day of plating. Working concentrations of compounds were prepared separately in RPMI-1640 only growth medium and pre-incubated with the cells for 30 minutes (37° C./5% CO2). Following the 30 minute compound pre-incubation, primary monocytes were treated with an appropriate concentration of LPS and subsequently incubated for a 24 hr period (37° C./5% CO2). An appropriate final concentration of Nigericin was then dispensed into the primary monocyte plates and incubated for 1 hour (37° C./5% CO2) before monocyte supernatants were harvested and collected in separate polypropylene 96-well holding plates prior to commencing the AlphaLISA cytokine assay.
Reagents from each of the IL-1β and IL-6 commercial kits (Perkin Elmer) were prepared and run according to the manufacturer's instructions. Subsequently, fluorescence signal was measured in a microplate reader (EnVision® Multilabel Reader, Perkin Elmer).
Percentage inhibition was calculated per cytokine by normalising the sample data to the high and low controls used within each plate (+/−LPS respectively). Percentage inhibition was then plotted against compound concentration and the 50% inhibitory concentration (IC50) was determined from the resultant concentration-response curve.

[2] = test system: hepatocytes; assay: Hepatocyte stability assay (mouse); assay type: in vitro ADME; conditions: 10 μM compound, 0.5×10^6 cells/mL, 60 minutes
From the text: (§1) Defrosted cryo-preserved hepatocytes (viability >70%) are used to determine the metabolic stability of a compound via calculation of intrinsic clearance (Clint; a measure of the removal of a compound from the liver in the absence of blood flow and cell binding). Clearance data are particularly important for in vitro work as they can be used in combination with in vivo data to predict the half-life and oral bioavailability of a drug.
(§2) The metabolic stability in hepatocytes assay involves a time-dependent reaction using both positive and negative controls. The cells must be pre-incubated at 37° C. then spiked with test compound (and positive control); samples taken at pre-determined time intervals are analysed to monitor the change in concentration of the initial drug compound over 60 minutes. A buffer incubation reaction (with no hepatocytes present) acts as a negative control and two cocktail solutions, containing compounds with known high and low clearance values (verapamil/7-hydroxycoumarin and propranolol/diltiazem), act as positive controls. • 1. The assay is run with a cell concentration of 0.5×10^6 cells/mL in Leibovitz buffer. • 2. All compounds and controls are run in duplicate. • 3. Compound concentration is 10 μM. • 4. All compounds and controls are incubated with both cells and buffer to show turnover is due to hepatic metabolism. • 5. All wells on the incubation plate will have 326.7 μL of either cells or buffer added. • 6. Prior to assay, cell and buffer-only incubation plates are preincubated for 10 mins at 37° C. • 7. The assay is initiated by adding compounds, 3.3 μL of 1 mM in 10% DMSO-90% Buffer; final DMSO concentration is 0.1%. • 8. Samples are taken at regular timepoints (0, 5, 10, 20, 40, 60 min) until 60 mins. • 9. Sample volume is 40 μL and it is added to 160 μL of crash solvent (acetonitrile with internal standard) and stored on ice. • 10. At the end of the assay, the crash plates are centrifuged at 3500 rpm for 20 mins at 4° C. • 11. 80 μL of clear supernatant is removed and mixed with 80 μL of deionised water before being analysed by LC-MS/MS.
(§3) Raw LC-MS/MS data are exported to, and analysed in, Microsoft Excel for determination of intrinsic clearance. The percentage remaining of a compound is monitored using the peak area of the initial concentration as 100%. Intrinsic clearance and half-life values are calculated using a graph of the natural log of percentage remaining versus the time of reaction in minutes. Half-life (min) and intrinsic clearance (Clint in μL min^−1 10^−6 cells) values are calculated using the gradient of the graph (the elimination rate constant, k) and Equations 1 and 2.

[3] = test system: hepatocytes; assay: Hepatocyte stability assay (human); assay type: in vitro ADME; conditions: 10 μM compound, 0.5×10^6 cells/mL, 60 minutes
From the text: as §1, §2, §3

[4] = test system: IL-1β cytokine output from THP-1s; assay: THP-1 AlphaLISA IL-1β cytokine assay; assay type: cell-based, human; conditions: Homo sapiens, THP-1, PMA-differentiated THP-1 cells, LPS 24 hr then Nigericin 1 hour; read-out: IL-1β (IC50)
Summary of the method: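 PMA-differentiated THP-1 cells (72 h) were pre-incubated 30 min with compound, then LPS-primed 24 h and pulsed with nigericin for 1 h at 37 °C. Supernatant cytokine was quantified by AlphaLISA; % inhibition was normalised to +/−LPS plate controls and IC50 taken from concentration-response curves.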

[5] = Hepatocyte stability assay (mouse); assay type: in vitro ADME; conditions: cryopreserved hepatocytes, 10 μM compound, 0.5×10^6 cells/mL, 60 minutes, read-out: T½
From the text: as §1, §2, §3

[6] = Mouse pharmacokinetic study, intravenous dosing; assay type: in vivo; conditions: male, C57BL/6, mouse, iv, plasma, 10 mg/kg i.v., read-out: Parent compound concentration following intravenous administration
Summary of the method: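 Plasma drug levels were quantified by LC-MS/MS from K2EDTA facial-vein semi-serial bleeds (N=3 per time point) in male C57BL/6 mice aged 6-8 weeks. Gavage dosing used 100 mg/kg (5% DMSO/HPMC-Tween vehicle, 5 min–24 h); tail-vein dosing used 10 mg/kg (10% DMSO/HP-β-CD vehicle, 3 min–8 h).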

[7] = Hepatocyte stability assay (human); assay type: in vitro ADME; conditions: cryopreserved hepatocytes, 10 μM compound, 0.5×10^6 cells/mL, 60 minutes, read-out: T½
From the text: as §1, §2, §3

| Compound | IC50 [1] [µM] | CIint (μL min^−1 10^−6 cells) [2] [μL min^−1 10^−6 cells] | T½ [2] [min] | CIint (μL min^−1 10^−6 cells) [3] [μL min^−1 10^−6 cells] | T½ [3] [min] | IC50 [4] [µM] | half-life at 10 μM [5] [min] | concentration at 0.05 h ([6]; time 0.05 h) [ng/mL] | concentration at 0.133 h ([6]; time 0.133 h) [ng/mL] | concentration at 0.25 h ([6]; time 0.25 h) [ng/mL] | concentration at 0.5 h ([6]; time 0.5 h) [ng/mL] | concentration at 1 h ([6]; time 1 h) [ng/mL] | concentration at 2 h ([6]; time 2 h) [ng/mL] | concentration at 4 h ([6]; time 4 h) [ng/mL] | concentration at 6 h ([6]; time 6 h) [ng/mL] | concentration at 8 h ([6]; time 8 h) [ng/mL] | half-life at 10 μM [7] [min] |
| --- | --- | --- | --- | --- | --- | --- | --- | --- | --- | --- | --- | --- | --- | --- | --- | --- | --- |
| C=C(CC(=O)OCCCCCCCC)C(=O)O [4-octyl itaconate, 4-Octyl itaconate, reference compound] | > 100 | 351 | 4 | 401 | 4 |  |  |  |  |  |  |  |  |  |  |  |  |
| C=C(CC(=O)O[C@H]1C[C@H]2CC[C@]1(C)C2(C)C)C(=O)OCC(=O)O [Example 179, 2-((2-methylene-4-oxo-4-(((1R,2S,4R)-1,7,7-trimethylbicyclo[2.2.1]heptan-2-yl)oxy)butanoyl)oxy)acetic acid] |  | 129 |  | 13 |  | 11 | 13 | 17900 | 5320 | 1810 | 456 | 13 | < 4 | < 4 | < 4 | < 4 | 129 |
